Read-outs that look alike come from different tables or passages of the source.
What was measured:
[1] = molecular target: T1, eeAChE (Electrophorus electricus, UniProt O42275); test: In vitro inhibition of eeAChE (Ellman method); type: biochemical, electric eel; settings: for inhibition at 10 µM: read-out: eeAChE Inhibition (%), inhibitor at 10 μM
T1 construct: eeAChE (from electric eel); purchased Sigma-Aldrich (St. Louis, MO, USA); host or cells: electric eel
Description: (§1) The in vitro inhibitory activities of test compounds against AChE and BuChE were determined by the spectrophotometric method of Ellman[25]. […] For each assay, 160 μL of 1.5 mM DTNB, 50 μL of AChE (0.22 U/mL for eeAChE; 0.05 U/mL for hAChE) or eqBuChE (0.12 U/mL) were incubated with 10 μL of different concentrations of test compounds at 37 °C for 6 min.

[2] = molecular target: T2, eqBuChE (Equus caballus, UniProt P81908); test: In vitro inhibition of eqBuChE (Ellman method); type: biochemical, equine; settings: for inhibition at 10 µM: read-out: eqBuChE Inhibition (%)
T2 construct: eqBuChE (from equine serum); purchased Sigma-Aldrich (St. Louis, MO, USA); host or cells: equine serum
Description: as §1

[3] = from PAMPA-BBB Pe
Description: (§2) Afterwards, the acceptor filter plate was carefully placed on the donor plate to make the coated membrane touch both donor solution and acceptor buffer. […] Pe was calculated by the following expression: Pe = {−VdVa/[(Vd + Va)At]}ln (1-drugacceptor/drugequilibrium), where Vd is the volume of donor well, Va is volume in acceptor well, A is the filter area, t is the permeation time, drugacceptor is the absorbance obtained in the acceptor well and drugequilibrium is the theoretical equilibrium absorbance. Each compound was analysed at five wavelengths in four wells at least three independent runs, and the results were expressed as mean ± SD.

[4] = in vitro; settings: PAMPA
Description: as §2

[5] = molecular target: T3, AChE-induced Aβ1-42 aggregation (Electrophorus electricus, UniProt O42275); test: Inhibition of AChE-induced Aβ1-42 aggregation (ThT assay); type: biochemical; settings: inhibitor 100 μM; thioflavin-T fluorescence
T3 construct: eeAChE (from electric eel); purchased eeAChE: Sigma-Aldrich (St. Louis, MO, USA); Aβ1-42: Royobiotech Co., Ltd (Shanghai, China)
Description: 1, 1, 1, 3, 3, 3-hexafluoro-2-propanol (HFIP) and Thioflavin T (ThT) were obtained from TCI (Shanghai) Development. β-Amyloid1-42 (Aβ1-42), supplied as trifluoroacetate salt, and eeAChE were purchased from Royobiotech Co., Ltd (Shanghai, China) and Sigma-Aldrich (St. Louis, MO, USA), respectively. For co-incubation experiments, aliquots of Aβ1-42 peptide and AChE in presence or absence of the test compounds were incubated for 48 h at 37 °C. […] The percent inhibition of the AChE-induced Aβ aggregation due to the presence of inhibitor was calculated by the following formula: 100 – (IFi/IFo*100), where IFi and IFo are the fluorescence intensities obtained for Aβ1-42 aggregation in the presence and in the absence of inhibitor, respectively. Each assay was run in triplicate and each reaction was repeated at least three independent times.

[6] = molecular target: T4, self-induced Aβ1-42 aggregation (Homo sapiens, UniProt P05067); test: Inhibition of self-induced Aβ1-42 aggregation (ThT assay); type: biochemical; settings: read-out: Inhibition of Aβ1–42 aggregation (%) Self-induced
T4 construct: Aβ1-42 was obtained from Royobiotech Co., Ltd (Shanghai, China); purchased Royobiotech Co., Ltd (Shanghai, China)
Description: The inhibitory activities of compounds 4c-f and 9a-b on self-induced Aβ1-42 aggregation were also measured by the ThT assay. HFIP and ThT were purchased from TCI (Shanghai) Development. Aβ1-42 was obtained from Royobiotech Co., Ltd (Shanghai, China). The monomeric Aβ1-42 samples were prepared by HFIP and diluted with a 50 mM phosphate buffer (pH 7.4) to give a 25 μM solution. The test compound was dissolved in DMSO (250 μM) for storage and needed not to be diluted prior to use. […]. Then, 200 μL of 5 μM ThT in 50 mM glycine-NaOH buffer (pH 8.0) was added, and the percent inhibition was calculated by the method same as that of AChE-induced Aβ1–42 experiment.

[7] = molecular target: hAChE (Homo sapiens, UniProt P22303); test: In vitro inhibition of hAChE (Ellman method); type: biochemical; set-up: Acetylcholinesterase (AChE, from electric eel and human erythrocytes); purchased Sigma-Aldrich (St. Louis, MO, USA); host or cells: human erythrocytes
Description: as §1

[8] = means ± SD of three experiments

Sequence of hAChE (P22303 32-617 isoform P22303-2 limits assumed): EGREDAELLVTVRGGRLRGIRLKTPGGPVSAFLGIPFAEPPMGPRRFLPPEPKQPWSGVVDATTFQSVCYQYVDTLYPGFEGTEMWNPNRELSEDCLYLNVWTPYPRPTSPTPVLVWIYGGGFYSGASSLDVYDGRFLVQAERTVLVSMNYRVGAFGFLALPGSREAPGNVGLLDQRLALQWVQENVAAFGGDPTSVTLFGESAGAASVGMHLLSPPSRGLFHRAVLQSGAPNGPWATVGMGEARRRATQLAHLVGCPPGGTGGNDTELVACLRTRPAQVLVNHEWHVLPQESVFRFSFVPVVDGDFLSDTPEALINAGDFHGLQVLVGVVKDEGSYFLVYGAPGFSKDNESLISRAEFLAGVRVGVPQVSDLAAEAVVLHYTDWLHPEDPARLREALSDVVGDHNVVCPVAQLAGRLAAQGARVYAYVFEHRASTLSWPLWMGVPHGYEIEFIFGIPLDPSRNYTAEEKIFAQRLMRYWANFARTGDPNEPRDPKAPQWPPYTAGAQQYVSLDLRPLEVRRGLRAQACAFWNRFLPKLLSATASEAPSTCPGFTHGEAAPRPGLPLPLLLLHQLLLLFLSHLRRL
T4 sequence (P05067 672-713): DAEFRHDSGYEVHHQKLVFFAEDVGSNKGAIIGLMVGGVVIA
T2 sequence (P81908 whole entry): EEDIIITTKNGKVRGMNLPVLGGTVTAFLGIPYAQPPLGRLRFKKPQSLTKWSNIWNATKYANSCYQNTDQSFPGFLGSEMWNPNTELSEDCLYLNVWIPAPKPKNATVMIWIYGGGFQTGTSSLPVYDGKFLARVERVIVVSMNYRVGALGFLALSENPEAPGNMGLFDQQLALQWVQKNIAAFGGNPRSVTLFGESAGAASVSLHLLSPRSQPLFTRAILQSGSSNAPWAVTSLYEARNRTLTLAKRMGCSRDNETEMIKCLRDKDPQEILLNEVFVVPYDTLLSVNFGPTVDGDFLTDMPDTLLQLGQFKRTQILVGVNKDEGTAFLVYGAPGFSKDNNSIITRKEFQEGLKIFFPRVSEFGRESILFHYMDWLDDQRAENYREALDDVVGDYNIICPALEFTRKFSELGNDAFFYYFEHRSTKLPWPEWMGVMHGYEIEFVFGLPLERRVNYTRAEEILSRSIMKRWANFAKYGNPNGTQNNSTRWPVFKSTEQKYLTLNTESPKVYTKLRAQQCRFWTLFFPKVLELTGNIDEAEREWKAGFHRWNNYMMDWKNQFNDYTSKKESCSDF
T3 sequence (O42275 24-633): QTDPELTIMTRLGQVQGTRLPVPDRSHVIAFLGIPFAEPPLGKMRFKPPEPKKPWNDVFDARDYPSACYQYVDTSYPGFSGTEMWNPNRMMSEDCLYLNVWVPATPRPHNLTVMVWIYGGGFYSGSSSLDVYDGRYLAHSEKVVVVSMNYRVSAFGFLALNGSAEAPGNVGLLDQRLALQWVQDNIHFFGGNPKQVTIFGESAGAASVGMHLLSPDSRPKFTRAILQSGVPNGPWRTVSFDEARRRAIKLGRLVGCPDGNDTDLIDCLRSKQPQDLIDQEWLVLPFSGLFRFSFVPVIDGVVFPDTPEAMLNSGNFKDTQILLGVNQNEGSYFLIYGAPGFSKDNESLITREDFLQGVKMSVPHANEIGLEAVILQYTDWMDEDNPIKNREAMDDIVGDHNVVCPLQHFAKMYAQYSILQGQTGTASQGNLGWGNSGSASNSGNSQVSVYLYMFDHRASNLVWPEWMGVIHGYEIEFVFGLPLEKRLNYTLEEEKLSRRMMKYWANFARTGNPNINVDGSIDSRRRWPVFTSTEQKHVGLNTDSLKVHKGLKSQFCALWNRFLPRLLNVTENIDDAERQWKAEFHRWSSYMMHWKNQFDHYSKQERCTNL
T1 sequence (O42275 24-633): as above

| SMILES | inhibition at 10 µM [1, 8] | inhibition at 10 µM [2] | Prediction of penetration into CNS [3] | Papp at 18 h, 25 μg/mL [4] | IC50 [1] | inhibition at 100 µM [5] | inhibition at 25 µM [6] | IC50 [7] | fold less inhibitory activity than compound 4c on AChE ([1]; ratio of eeAChE IC50 values) | IC50 [2] | eeAChE Inhibition (%) ([1]; inhibitor at 10 μM, means ± SD of three experiments, 10 µM) | inhibition at 25 µM ([6]; inhibitor 25 μM, thioflavin-T fluorescence) |
| --- | --- | --- | --- | --- | --- | --- | --- | --- | --- | --- | --- | --- |
| O=c1ccc2ccc(OCCSC(=S)N3CCCCC3)cc2[nH]1 [4a, 2-((2-oxo-1,2-dihydroquinolin-7-yl)oxy)ethyl piperidine-1-carbodithioate] | 45.3 ± 0.35% | 16.7 ± 2.36% | CNS+ (CNS + is predicted as high BBB permeation with Pe (×10^6 cm/s) > 3.33) | 8.57 ± 1.23 ×10⁻⁶ cm/s |  |  |  |  |  |  |  |  |
| O=c1ccc2ccc(OCCCSC(=S)N3CCCCC3)cc2[nH]1 [4b, 3-((2-oxo-1,2-dihydroquinolin-7-yl)oxy)propyl piperidine-1-carbodithioate] |  | 16.6 ± 4.01% | CNS+ (CNS + is predicted as high BBB permeation with Pe (×10^6 cm/s) > 3.33) | 8.78 ± 1.11 ×10⁻⁶ cm/s | 3960 ± 710 nM |  |  |  |  |  |  |  |
| O=c1ccc2ccc(OCCCCCSC(=S)N3CCCCC3)cc2[nH]1 [4d, 5-((2-oxo-1,2-dihydroquinolin-7-yl)oxy)pentyl piperidine-1-carbodithioate] |  | 20.9 ± 2.61% | CNS+ (CNS + is predicted as high BBB permeation with Pe (×10^6 cm/s) > 3.33) | 8.82 ± 1.34 ×10⁻⁶ cm/s | 240 ± 20 nM | 24.1 ± 3.04% | 26 ± 3.01% | 570 ± 10 nM |  |  |  |  |
| O=c1ccc2ccc(OCCCCCCSC(=S)N3CCCCC3)cc2[nH]1 [4e, 6-((2-oxo-1,2-dihydroquinolin-7-yl)oxy)hexyl piperidine-1-carbodithioate] |  | 17.5 ± 2.17% | CNS+ (CNS + is predicted as high BBB permeation with Pe (×10^6 cm/s) > 3.33) | 9.85 ± 0.98 ×10⁻⁶ cm/s | 350 ± 20 nM | 20.3 ± 2.21% | 25.8 ± 1.43% | 380 ± 20 nM |  |  |  |  |
| CC1CCN(C(=S)SCCCCOc2ccc3ccc(=O)[nH]c3c2)CC1 [4f, 4-((2-oxo-1,2-dihydroquinolin-7-yl)oxy)butyl 4-methylpiperidine-1-carbodithio-ate] |  | 37.2 ± 1.22% | CNS+ (CNS + is predicted as high BBB permeation with Pe (×10^6 cm/s) > 3.33) | 6.3 ± 0.86 ×10⁻⁶ cm/s | 690 ± 220 nM | 12.1 ± 3.18% | 20.4 ± 3.22% | 1210 ± 330 nM | 3 fold |  |  |  |
| CC(C)C1CCN(C(=S)SCCCCOc2ccc3ccc(=O)[nH]c3c2)CC1 [4g, 4-((2-oxo-1,2-dihydroquinolin-7-yl)oxy)butyl 4-isopropylpiperidine-1-carbodithi-oate] |  | 31.4 ± 3.15% | CNS+ (CNS + is predicted as high BBB permeation with Pe (×10^6 cm/s) > 3.33) | 7.14 ± 1.97 ×10⁻⁶ cm/s | 9610 ± 1120 nM |  |  |  |  |  |  |  |
| O=c1ccc2ccc(OCCCCSC(=S)N3CCC(N4CCCCC4)CC3)cc2[nH]1 [4h, 4-((2-oxo-1,2-dihydroquinolin-7-yl)oxy)butyl [1,4′-bipiperidine]-1′-carbodithio-ate] |  |  | CNS+ (CNS + is predicted as high BBB permeation with Pe (×10^6 cm/s) > 3.33) | 6.42 ± 1.02 ×10⁻⁶ cm/s | 3800 ± 350 nM |  |  |  |  | 2000 ± 230 nM |  |  |
| O=c1ccc2ccc(OCCCCSC(=S)N3CCC(O)CC3)cc2[nH]1 [4i, 4-((2-oxo-1,2-dihydroquinolin-7-yl)oxy)butyl 4-hydroxypiperidine-1-carbodithio-ate] | 20.2 ± 3.27% | 15.8 ± 2.45% | CNS± (CNS ± is uncertain for BBB permeation with 1.51 < Pe (×10^6 cm/s) < 3.33) | 2.83 ± 0.65 ×10⁻⁶ cm/s |  |  |  |  |  |  |  |  |
| O=c1ccc2ccc(OCCCCSC(=S)N3CCC(CO)CC3)cc2[nH]1 [4j, 4-((2-oxo-1,2-dihydroquinolin-7-yl)oxy)butyl 4-(hydroxymethyl)piperidine-1-ca-rbodithioate] | 14.5 ± 2.44% | 23.9 ± 2.03% | CNS± (CNS ± is uncertain for BBB permeation with 1.51 < Pe (×10^6 cm/s) < 3.33) | 3.25 ± 0.82 ×10⁻⁶ cm/s |  |  |  |  |  |  |  |  |
| CN1CCN(C(=S)SCCCCOc2ccc3ccc(=O)[nH]c3c2)CC1 [4k, 4-((2-oxo-1,2-dihydroquinolin-7-yl)oxy)butyl 4-methylpiperazine-1-car-bodithioate] | 23.1 ± 5.54% | 28.6 ± 3.44% | CNS+ (CNS + is predicted as high BBB permeation with Pe (×10^6 cm/s) > 3.33) | 4.54 ± 0.84 ×10⁻⁶ cm/s |  |  |  |  |  |  |  |  |
| O=c1ccc2ccc(OCCCCSC(=S)N3CCOCC3)cc2[nH]1 [4l, 4-((2-oxo-1,2-dihydroquinolin-7-yl)oxy)butyl morpholine-4-carbodithioate] | 12.3 ± 1.76% | 30.5 ± 4.11% | CNS+ (CNS + is predicted as high BBB permeation with Pe (×10^6 cm/s) > 3.33) | 7.35 ± 1.05 ×10⁻⁶ cm/s |  |  |  |  |  |  |  |  |
| O=c1ccc2ccc(OCCCCSC(=S)N3CCCC3)cc2[nH]1 [4m, 4-((2-oxo-1,2-dihydroquinolin-7-yl)oxy)butyl pyrrolidine-1-carbodithioate] | < 50% | 7.63 ± 0.92% | CNS+ (CNS + is predicted as high BBB permeation with Pe (×10^6 cm/s) > 3.33) | 10 ± 2.63 ×10⁻⁶ cm/s |  |  |  |  |  |  | 31.43 ± 1.65% |  |
| Cc1cc(=O)[nH]c2cc(OCCCCSC(=S)N3CCCCC3)ccc12 [9a, 4-((4-methyl-2-oxo-1,2-dihydroquinolin-7-yl)oxy)butylpiperidine-1-carbodithioate] |  | 18.3 ± 3.15% | CNS+ (CNS + is predicted as high BBB permeation with Pe (×10^6 cm/s) > 3.33) | 8.79 ± 2.1 ×10⁻⁶ cm/s | 300 ± 120 nM | 14.2 ± 2.85% | 33.4 ± 4.85% | 760 ± 100 nM |  |  |  |  |
| Cc1c(C)c2ccc(OCCCCSC(=S)N3CCCCC3)cc2[nH]c1=O [9b, 4-((3,4-dimethyl-2-oxo-1,2-dihydroquinolin-7-yl)oxy)butylpiperidine-1-carbodithioate] |  | 21.2 ± 1.6% | CNS+ (CNS + is predicted as high BBB permeation with Pe (×10^6 cm/s) > 3.33) | 8.67 ± 1.76 ×10⁻⁶ cm/s | 340 ± 10 nM | 24.4 ± 3.03% | 35.3 ± 2.17% | 390 ± 10 nM |  |  |  |  |
| COc1cc(/C=C/C(=O)CC(=O)/C=C/c2ccc(O)c(OC)c2)ccc1O [Curcumin, reference compound] |  |  |  |  |  |  |  |  |  |  |  | 37.3 ± 2.76% |
| CC(=O)[C@H]1CC[C@H]2[C@@H]3CCC4=CC(=O)CC[C@]4(C)[C@H]3CC[C@]12C [Progesterone, reference compound] |  |  |  | 10.4 ± 1.9 ×10⁻⁶ cm/s |  |  |  |  |  |  |  |  |

Source: PMC6844382, “Design, synthesis and evaluation of quinolinone derivatives containing dithiocarbamate moiety as multifunctional AChE inhibitors for the treatment of Alzheimer’s disease” (Journal of Enzyme Inhibition and Medicinal Chemistry, 2019)
